Reference: the supplement of paper PMC10307832

Assays:
Assay in all cases: relative viability (nuclei count vs DMSO), 5 days (fraction); higher = more cells survive
NCI-H2085 = tested on: NCI-H2085
Procedure, shortened: (§1)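 Dosing by pin tool came one day after lung cancer cell lines were seeded in 1536-well plates, using either one drug or a fixed anchor-drug dose plus five library-drug doses (not always all listed) in √10 steps. After 5 days, nuclei were counted on 4× images. Relative viability is treated-well nuclei count divided by vehicle-well nuclei count, and values are medians of duplicate plates.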

LCLC-103H = tested on: LCLC-103H
Procedure, shortened: as §1

NCI-H838 = tested on: NCI-H838
Procedure, shortened: as §1

NCI-H1395 = tested on: NCI-H1395
Procedure, shortened: as §1

NCI-H2405 = tested on: NCI-H2405
Procedure, shortened: as §1

LU99A = tested on: LU99A
Procedure, shortened: as §1

EPLC-272H = tested on: EPLC-272H
Procedure, shortened: as §1

NCI-H650 = tested on: NCI-H650
Procedure, shortened: as §1

NCI-H2023 = tested on: NCI-H2023
Procedure, shortened: as §1

NCI-H1793 = tested on: NCI-H1793
Procedure, shortened: as §1

NCI-H1563 = tested on: NCI-H1563
Procedure, shortened: as §1

NCI-H2087 = tested on: NCI-H2087
Procedure, shortened: as §1

HCC-827 = tested on: HCC-827
Procedure, shortened: as §1

COR-L23 = tested on: COR-L23
Procedure, shortened: as §1

HCC-44 = tested on: HCC-44
Procedure, shortened: as §1

SK-MES-1 = tested on: SK-MES-1
Procedure, shortened: as §1

EMC-BAC-2 = tested on: EMC-BAC-2
Procedure, shortened: as §1

NCI-H1944 = tested on: NCI-H1944
Procedure, shortened: as §1

NCI-H520 = tested on: NCI-H520
Procedure, shortened: as §1

NCI-H1651 = tested on: NCI-H1651
Procedure, shortened: as §1

H3255 = tested on: H3255
Procedure, shortened: as §1

Q: Which results are given for `Cc1sc2c(c1C)C(c1ccc(Cl)cc1)=N[C@@H](CC(=O)OC(C)(C)C)c1nnc(C)n1-2` [JQ1] + C[C@]1(O)C[C@@H](c2nc(-c3ccc4ccc(-c5ccccc5)nc4c3)c3c(N)nccn32)C1 [Linsitinib] (partner 1 µM)?
A: relative viability (NCI-H2085; first compound 0.04 µM): 0.99; relative viability (NCI-H2085; first compound 0.1265 µM): 0.652; relative viability (NCI-H2085; first compound 0.4 µM): 0.642; relative viability (NCI-H2085; first compound 1.265 µM): 0.687; relative viability (NCI-H2085; first compound 4 µM): 0.453; relative viability (LCLC-103H; first compound 0.04 µM): 1.01; relative viability (LCLC-103H; first compound 0.1265 µM): 0.751; relative viability (LCLC-103H; first compound 0.4 µM): 0.805; relative viability (LCLC-103H; first compound 1.265 µM): 0.608; relative viability (LCLC-103H; first compound 4 µM): 0.456; relative viability (NCI-H838; first compound 0.04 µM): 0.954; relative viability (NCI-H838; first compound 0.1265 µM): 0.543; relative viability (NCI-H838; first compound 0.4 µM): 0.74; relative viability (NCI-H838; first compound 1.265 µM): 0.307; relative viability (NCI-H838; first compound 4 µM): 0.229; relative viability (NCI-H1395; first compound 0.04 µM): 0.983; relative viability (NCI-H1395; first compound 0.1265 µM): 0.797; relative viability (NCI-H1395; first compound 0.4 µM): 0.788; relative viability (NCI-H1395; first compound 1.265 µM): 0.562; relative viability (NCI-H1395; first compound 4 µM): 0.486; relative viability (NCI-H2405; first compound 0.04 µM): 0.919; relative viability (NCI-H2405; first compound 0.4 µM): 0.779; relative viability (NCI-H2405; first compound 1.265 µM): 0.535; relative viability (NCI-H2405; first compound 4 µM): 0.537; relative viability (LU99A; first compound 0.04 µM): 0.573; relative viability (LU99A; first compound 0.1265 µM): 0.516; relative viability (LU99A; first compound 0.4 µM): 0.325; relative viability (LU99A; first compound 1.265 µM): 0.292; relative viability (LU99A; first compound 4 µM): 0.202; relative viability (EPLC-272H; first compound 0.04 µM): 1.14; relative viability (EPLC-272H; first compound 0.1265 µM): 1.07; relative viability (EPLC-272H; first compound 0.4 µM): 1.12; relative viability (EPLC-272H; first compound 1.265 µM): 0.502; relative viability (EPLC-272H; first compound 4 µM): 0.418; relative viability (NCI-H650; first compound 0.04 µM): 0.913; relative viability (NCI-H650; first compound 0.1265 µM): 0.507; relative viability (NCI-H650; first compound 0.4 µM): 0.503; relative viability (NCI-H650; first compound 1.265 µM): 0.291; relative viability (NCI-H650; first compound 4 µM): 0.26; relative viability (NCI-H2023; first compound 0.04 µM): 0.653; relative viability (NCI-H2023; first compound 0.1265 µM): 0.576; relative viability (NCI-H2023; first compound 0.4 µM): 0.379; relative viability (NCI-H2023; first compound 1.265 µM): 0.207; relative viability (NCI-H2023; first compound 4 µM): 0.157; relative viability (NCI-H1793; first compound 0.04 µM): 0.936; relative viability (NCI-H1793; first compound 0.1265 µM): 0.755; relative viability (NCI-H1793; first compound 0.4 µM): 0.923; relative viability (NCI-H1793; first compound 1.265 µM): 0.715; relative viability (NCI-H1793; first compound 4 µM): 0.952; relative viability (NCI-H1563; first compound 0.04 µM): 1.28; relative viability (NCI-H1563; first compound 0.1265 µM): 1.1; relative viability (NCI-H1563; first compound 0.4 µM): 0.976; relative viability (NCI-H1563; first compound 1.265 µM): 0.722; relative viability (NCI-H1563; first compound 4 µM): 0.646; relative viability (NCI-H2087; first compound 0.04 µM): 1.02; relative viability (NCI-H2087; first compound 0.4 µM): 0.69; relative viability (NCI-H2087; first compound 1.265 µM): 0.456; relative viability (NCI-H2087; first compound 4 µM): 0.508; relative viability (HCC-827; first compound 0.04 µM): 0.921; relative viability (HCC-827; first compound 0.4 µM): 1.16; relative viability (HCC-827; first compound 1.265 µM): 0.958; relative viability (HCC-827; first compound 4 µM): 0.862; relative viability (COR-L23; first compound 0.04 µM): 0.931; relative viability (COR-L23; first compound 0.1265 µM): 0.74; relative viability (COR-L23; first compound 0.4 µM): 0.818; relative viability (COR-L23; first compound 1.265 µM): 0.226; relative viability (COR-L23; first compound 4 µM): 0.172; relative viability (HCC-44; first compound 0.04 µM): 0.704; relative viability (HCC-44; first compound 0.1265 µM): 0.448; relative viability (HCC-44; first compound 0.4 µM): 0.32; relative viability (HCC-44; first compound 1.265 µM): 0.31; relative viability (HCC-44; first compound 4 µM): 0.283; relative viability (SK-MES-1; first compound 0.04 µM): 1.02; relative viability (SK-MES-1; first compound 0.1265 µM): 0.752; relative viability (SK-MES-1; first compound 0.4 µM): 0.862; relative viability (SK-MES-1; first compound 1.265 µM): 0.332; relative viability (SK-MES-1; first compound 4 µM): 0.374; relative viability (EMC-BAC-2; first compound 0.04 µM): 0.815; relative viability (EMC-BAC-2; first compound 0.1265 µM): 0.812; relative viability (EMC-BAC-2; first compound 0.4 µM): 0.659; relative viability (EMC-BAC-2; first compound 1.265 µM): 0.444; relative viability (EMC-BAC-2; first compound 4 µM): 0.47; relative viability (NCI-H1944; first compound 0.04 µM): 1.15; relative viability (NCI-H1944; first compound 0.1265 µM): 0.874; relative viability (NCI-H1944; first compound 0.4 µM): 0.922; relative viability (NCI-H1944; first compound 1.265 µM): 0.623; relative viability (NCI-H1944; first compound 4 µM): 0.557; relative viability (NCI-H520; first compound 0.04 µM): 0.962; relative viability (NCI-H520; first compound 0.1265 µM): 1.26; relative viability (NCI-H520; first compound 0.4 µM): 0.821; relative viability (NCI-H520; first compound 1.265 µM): 0.435; relative viability (NCI-H520; first compound 4 µM): 0.287; relative viability (NCI-H1651; first compound 0.04 µM): 0.776; relative viability (NCI-H1651; first compound 0.1265 µM): 0.871; relative viability (NCI-H1651; first compound 0.4 µM): 0.797; relative viability (NCI-H1651; first compound 1.265 µM): 0.433; relative viability (NCI-H1651; first compound 4 µM): 0.468; relative viability (H3255; first compound 0.04 µM): 0.913; relative viability (H3255; first compound 0.1265 µM): 0.728; relative viability (H3255; first compound 0.4 µM): 0.881; relative viability (H3255; first compound 1.265 µM): 0.402; relative viability (H3255; first compound 4 µM): 0.328
